Measurements reported in paper PMC6823370, “A novel nucleoside rescue metabolic pathway may be responsible for therapeutic effect of orally administered cordycepin” (Scientific Reports, 2019).
Converted amounts (≈) assume the structure as drawn.

Key:
[1] = Plasma stability of cordycepin in rat plasma; assay type: in vitro ADME; settings: read-out: ex vivo stability half-life (t1/2) in plasma
Description: Stability of cordycepin in plasma was tested using human and rat plasma by following a previously reported method with minor modifications. Cordycepin was spiked into the plasma at 10 µM and the samples were incubated in a shaking incubator (Thermo Scientific MaxQ4000, Waltham, MA, USA) at 37 °C and shaken at 250 rpm. Samples (100 µL) were withdrawn at predetermined time points. […] The experiments were performed in triplicates.
Samples from studies of plasma stability, protein binding, biorelevant solubility and liver microsomal stability were subjected to liquid-liquid extraction and HPLC-UV analysis. To 100 µL of sample, internal standard (2′-deoxyadenosine) was spiked at 10 µg/mL and 300 µL of 0.1 M NaOH was added. Extraction solvent (3 mL) of ethyl acetate-isopropyl alcohol (85:15, v/v) was added and vortex-mixed for 10 min. Samples were then centrifuged at 1160 g for 5 min and the supernatant was transferred and dried under N2 gas. Dried samples were reconstituted with 100 uL of deionised distilled water (DDW) and 40 µL was injected into the HPLC-UV. The HPLC-UV setup was adopted from a validated method[22] with addition of a gradient scheme to elute the impurities from samples. Waters Alliance 2695 module with Waters 996 PDA detector was used for the HPLC-UV system with Capcell Pak C18 3 µm, 4.6 × 150 mm as the stationary phase. […]

[2] = Caco-2 permeability; assay type: in vitro ADME; settings: human, Caco-2; read-out: apparent permeability coefficient (Papp), A to B
Description: (§1) Caco-2 permeability assays were conducted following previously reported methods with 21-day maintenance on the Corning 24-well Transwell® (Fisher Scientific, Loughborough, UK)[48]. […] Both directions of apical-to-basolateral and basolateral-to-apical were tested. […] The experiments were conducted in triplicates.
(§2) Samples from Caco-2 permeability, in vitro determination of CordyTP formation and in vivo experiments were subjected to protein precipitation followed by LC-MS/MS analysis. To 50 µL of rat plasma sample, 150 µL of internal standard solution (1.67 µg/mL 2-chloroadenosine in methanol) was added. The samples were then vortex-mixed for 10 s and were centrifuged for 3 min at 17949 g. Supernatant (20 µL) was collected and diluted 10-fold with DDW before injection into the LC-MS/MS for analysis of cordycepin and 3′-deoxyinosine. For analysis of CordyTP, the supernatant was filtered using filter tubes mentioned above and injected without dilution. Tissue samples were homogenised using Bullet Blender Gold (Next Advance, Inc., Troy, NY) in methanol (1:3 w/v) and centrifuged for 3 min at 17949 g. The supernatant was filtered and injected for analysis of CordyTP or diluted 10-fold with DDW for analysis of cordycepin and 3′-deoxyinosine. The LC-MS/MS system was a API4000 QTrap (AB Sciex, Warrington, UK) equipped with HPLC setup of SCL10Avp controller, LC10ADvp pump and SILHTC autosampler (Shimadzu, Milton Keynes, UK). Three different methods were utilised for each compound and multiple reaction monitoring parameters of the MS/MS conditions are shown in Table 1. The HPLC conditions including stationary phases and specific mass spectrometry parameters are shown in Supplementary Information 2. The LC-MS/MS method for cordycepin was fully validated in terms of accuracy, precision, sensitivity, selectivity, linearity and sample storage stability in accordance with the Guidance for Industry, Bioanalytical Method Validation, (2018) published by the US FDA (refer to Supplementary Information 3 for validation procedures and results)[53].

[3] = tested on: Caco-2 cells; assay: Caco-2 permeability; assay type: in vitro ADME
Description: as §1, §2

[4] = Liver microsomal stability, human liver microsomes; assay type: in vitro ADME; settings: human liver microsome, pentostatin −; for CLint scaled at 1 µM: human, liver microsomes
Description: Human and rat liver microsomes were used in the experiment following previously reported methods[49],[50]. Microsomes were used at 0.5 mg protein/mL and cordycepin was tested at 1 µM. […] The reaction mixture was incubated in the shaking incubator at 37 °C for 30 min with sampling every 10 min. The results of intrinsic clearance and the fraction that escapes hepatic metabolism (by both well-stirred and parallel-tube models) were calculated by previously reported equations and physiological parameters[50]–[52]. The experiments were performed in triplicates.
Samples from studies of plasma stability, protein binding, biorelevant solubility and liver microsomal stability were subjected to liquid-liquid extraction and HPLC-UV analysis. To 100 µL of sample, internal standard (2′-deoxyadenosine) was spiked at 10 µg/mL and 300 µL of 0.1 M NaOH was added. Extraction solvent (3 mL) of ethyl acetate-isopropyl alcohol (85:15, v/v) was added and vortex-mixed for 10 min. Samples were then centrifuged at 1160 g for 5 min and the supernatant was transferred and dried under N2 gas. Dried samples were reconstituted with 100 uL of deionised distilled water (DDW) and 40 µL was injected into the HPLC-UV. The HPLC-UV setup was adopted from a validated method[22] with addition of a gradient scheme to elute the impurities from samples. Waters Alliance 2695 module with Waters 996 PDA detector was used for the HPLC-UV system with Capcell Pak C18 3 µm, 4.6 × 150 mm as the stationary phase. Mobile phase was a mixture of acetonitrile (A) and DDW (B) at flow rate 0.8 mL/min with a gradient scheme of the following: 0–9 min, B 94%; 9–14 min, B decreased to 20%; 14–24 min, B 20%; 24–26 min, B increased to 94%; and 26–35 min, B 94%. Calibration curves were constructed at a range of 10 – 20000 ng/mL and chromatograms were obtained at 259 nm of wavelength.

[5] = Sample storage stability of cordycepin in rat plasma containing pentostatin; assay type: in vitro ADME; settings: for Autosampler (24 h, 4°C) sample stability: processed samples; for Freeze-thaw (3 cycles) sample stability / Long-term (4 weeks, -80°C) sample stability / Long-term (5 days, -80°C) sample stability / Short-term (4 h, RT) sample stability: rat plasma with 10 µM pentostatin
Description: Stability of cordycepin was tested in different conditions. […] Samples withdrawn at pre-determined time points were prepared and analysed for stability and degradation rate of cordycepin in rat plasma.
Sample storage stability studies were conducted with QC samples (LQC, MQC and HQC; 5 replicates for each condition). […] Short-term (benchtop) stability was tested after storing spiked QC samples for 4 h at room temperature. Long-term stability was tested in storage condition of -80 °C for 5 days and 4 weeks. Freeze-thaw cycle stability was tested after undergoing three cycles between -80 °C and room temperature. Autosampler stability was tested by analysing processed QC samples after storage at 4 °C for 24 h. All stability samples were quantified with freshly prepared calibration curve samples. Stock solution stability was tested by analysing five different aliquots of 1000 ng/mL working standard solution stored for 6 h at room temperature and comparing to a fresh working standard solution.

[6] = parameters: method as in PMID 28560504; settings: previously reported; cited from earlier work

For `Nc1ncnc2c1ncn2[C@@H]1O[C@H](CO)C[C@H]1O` [cordycepin, 3′-deoxyadenosine], which half-life at 10 µM [1] is on record?
The half-life at 10 µM was 25 ± 0.7 min.

What about the Papp A→B at 120 min, 200 µM [2] of the same molecule?
Its Papp A→B at 120 min, 200 µM is 0.11 ± 0.01 ×10⁻⁶ cm/s.

And the “cordycepin remaining in donor chamber at 120 min” value (“cordycepin remaining” below) ([3]; applied to apical side with pentostatin)?
The value was “remained stable”.

And the “cordycepin remaining” value ([3]; applied to apical side without pentostatin)?
Its value is “significantly degraded”.

And the “cordycepin remaining” value ([3]; applied to basolateral side without pentostatin)?
The value was “remained stable”.

And the permeation of cordycepin ([3]; cordycepin 200 µM without pentostatin, A to B and B to A)?
Its permeation of cordycepin is “not detected”.

And the “Fh, parallel-tube model” value ([4]; NADPH +)?
Its value is 0.0 ± 0.0%.

What about the “Fh, well-stirred model” value ([4]; NADPH +) of the same molecule?
The value was 10.3 ± 0.7%.

What about the “Fh, parallel-tube model” value ([4]; NADPH −) of the same molecule?
The value was 0.0 ± 0.0%.

What about the “Fh, well-stirred model” value ([4]; NADPH −) of the same molecule?
Its value is 10.4 ± 0.3%.

What about the CLint scaled at 1 µM ([4]; NADPH +) of the same molecule?
The CLint scaled at 1 µM was 181 ± 13.9 mL/min/kg.

And the CLint scaled at 1 µM ([4]; NADPH −)?
The CLint scaled at 1 µM was 179 ± 5.3 mL/min/kg.

And the “Autosampler (24 h, 4°C) sample stability” value ([5]; HQC 4000 ng/mL)?
The value was 100.4 ± 3.4.

What about the “Freeze-thaw (3 cycles) sample stability” value ([5]; HQC 4000 ng/mL) of the same molecule?
The value was 106.7 ± 7.4.

And the “Long-term (4 weeks, -80°C) sample stability” value ([5]; HQC 4000 ng/mL)?
Its value is 103.8 ± 1.5.

What about the “Long-term (5 days, -80°C) sample stability” value ([5]; HQC 4000 ng/mL) of the same molecule?
Its value is 98.6 ± 5.4.

What about the “Short-term (4 h, RT) sample stability” value ([5]; HQC 4000 ng/mL) of the same molecule?
Its value is 107.4 ± 2.9.

And the “Autosampler (24 h, 4°C) sample stability” value ([5]; LQC 5 ng/mL)?
Its value is 113.8 ± 8.9.

And the “Freeze-thaw (3 cycles) sample stability” value ([5]; LQC 5 ng/mL)?
Its value is 104.5 ± 7.4.

And the “Long-term (4 weeks, -80°C) sample stability” value ([5]; LQC 5 ng/mL)?
Its value is 93.5 ± 7.0.

What about the “Long-term (5 days, -80°C) sample stability” value ([5]; LQC 5 ng/mL) of the same molecule?
Its value is 107.4 ± 3.8.

And the “Short-term (4 h, RT) sample stability” value ([5]; LQC 5 ng/mL)?
Its value is 104.7 ± 9.2.

And the “Autosampler (24 h, 4°C) sample stability” value ([5]; MQC 80 ng/mL)?
The value was 91.6 ± 3.6.

And the “Freeze-thaw (3 cycles) sample stability” value ([5]; MQC 80 ng/mL)?
Its value is 113.1 ± 13.1.

What about the “Long-term (4 weeks, -80°C) sample stability” value ([5]; MQC 80 ng/mL) of the same molecule?
Its value is 113.5 ± 3.3.

What about the “Long-term (5 days, -80°C) sample stability” value ([5]; MQC 80 ng/mL) of the same molecule?
Its value is 110.0 ± 3.3.

What about the “Short-term (4 h, RT) sample stability” value ([5]; MQC 80 ng/mL) of the same molecule?
The value was 98.2 ± 7.3.

What about the solubility in water [6] of the same molecule?
Its solubility in water is 5000 ± 100 µg/mL (≈ 19.9 mM).
